The supplement of paper PMC10290057
Counter-ions that a name gives are not always drawn.

How the values were obtained:
HCT116 [1] = experiment: AC50 cell viability (CellTiter-Glo); higher = less potent; details: 48 h
HCT116 [2] = experiment: efficacy (fitted maximal change in viability relative to DMSO control); higher = less cytotoxic (negative = loss of viability); details: 48 h
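For AC50 cell viability (CellTiter-Glo) in this document: HCT116 colorectal carcinoma cells screened at five concentrations per compound, luminescent viability scaled between DMSO wells and empty wells on each plate, curves fitted per compound.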
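For efficacy (fitted maximal change in viability relative to DMSO control) in this document: Luminescence-based viability readout, five doses per compound, normalized against on-plate DMSO and empty-well controls, followed by dose-response curve fitting for every drug.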

COc1ccc(-c2cc3c(C)nc(N)nc3n([C@H]3CC[C@H](OCCO)CC3)c2=O)cn1 was tested, and the AC50 cell viability (HCT116 [1]) was 0.332 µM and the efficacy (HCT116 [2]) was -71.8%.
CCN(C(=O)C/1=C(O)/C2=C(C=CC=C2Cl)N(C)C1=O)C3=CC=CC=C3 [Laquinimod] showed an AC50 cell viability (HCT116 [1]) of 10.5 µM and an efficacy (HCT116 [2]) of -65.8%.
In the case of CNC(=O)Nc1ccc(-c2nc(N3CC4CCC(C3)O4)c3cnn(C4CCC5(CC4)OCCO5)c3n2)cc1, the AC50 cell viability (HCT116 [1]) is reported as 1.18 µM and the efficacy (HCT116 [2]) is reported as -96.3%.
For O=C(Nc1ccc([N+](=O)[O-])cc1Cl)c1cc(Cl)ccc1O [Niclosamide], the AC50 cell viability (HCT116 [1]) was 1.05 µM and the efficacy (HCT116 [2]) was -90.8%.
NC(=O)c1cccc2c(NC(CN3CCC3)c3ccc(Cl)c(C(F)(F)F)c3)ncnc12 (configuration not stated) [M2698] gave an AC50 cell viability (HCT116 [1]) of 10.5 µM and an efficacy (HCT116 [2]) of -116%.
In the case of CCNC(=O)Nc1ccc(Oc2ncnc(N)c2/C=N/OC)cc1Cl, the AC50 cell viability (HCT116 [1]) is reported as 23.5 µM and the efficacy (HCT116 [2]) is reported as -70.7%.
C=CC(=O)Nc1cc(Nc2nccc(-c3cn(C)c4ccccc34)n2)c(OC)cc1N(C)CCN(C)C [Osimertinib mesylate] gave an AC50 cell viability (HCT116 [1]) of 8.33 µM and an efficacy (HCT116 [2]) of -103%.
Compound CN1CCN(C2CCN(C(=O)Nc3cc(Oc4ccc(NC(=O)C5(C(=O)Nc6ccc(F)cc6)CC5)c(F)c4)ccn3)CC2)CC1 [Golvatinib] has an AC50 cell viability (HCT116 [1]) of 14.8 µM and an efficacy (HCT116 [2]) of -93.6%.
In the case of C=C1CC[C@@H]2[C@](C)(CO)[C@H](O)CC[C@@]2(C)[C@@H]1C/C=C1/C(=O)OC[C@H]1O [Andrographolide], the AC50 cell viability (HCT116 [1]) is reported as 4.68 µM and the efficacy (HCT116 [2]) is reported as -68.1%.
Work on C[C@H](Cc1ccc(O)c(O)c1)[C@@H](C)Cc1ccc(O)c(O)c1 [Masoprocol] yielded an AC50 cell viability (HCT116 [1]) of 18.6 µM and an efficacy (HCT116 [2]) of -46.2%.
Work on O=C(Nc1ccc2[nH]nc(-c3ccncc3)c2c1)[C@@H]1CCN(CC(=O)N2CCN(c3ccc(-c4ncccn4)cc3)CC2)C1 yielded an AC50 cell viability (HCT116 [1]) of 0.295 µM and an efficacy (HCT116 [2]) of -64.3%.
CCn1c(-c2nonc2N)nc2cnc(Oc3cccc(NC(=O)c4ccc(OCCN5CCOCC5)cc4)c3)cc21 gave an AC50 cell viability (HCT116 [1]) of 10.5 µM and an efficacy (HCT116 [2]) of -79.2%.
NC(=O)c1ccc2[nH]c(-c3ccc(Oc4ccc(Cl)cc4)cc3)nc2c1 [BML-277] gave an AC50 cell viability (HCT116 [1]) of 18.6 µM and an efficacy (HCT116 [2]) of -67.3%.
Cc1cc(Nc2cc(NC(=O)c3c(Cl)cccc3Cl)ccn2)nc(N)n1 [RO495] was tested, and the AC50 cell viability (HCT116 [1]) was 1.18 µM and the efficacy (HCT116 [2]) was -74.4%.
With CCCCNc1ncc2c(-c3ccc(CN4CCN(C)CC4)cc3)cn([C@H]3CC[C@H](O)CC3)c2n1 [UNC2025 (hydrochloride)] the AC50 cell viability (HCT116 [1]) was 1.66 µM and the efficacy (HCT116 [2]) was -93.7%.
In the case of NC(=O)Nc1sc(-c2ccc(F)cc2)cc1C(N)=O [TPCA-1], the AC50 cell viability (HCT116 [1]) is reported as 14.8 µM and the efficacy (HCT116 [2]) is reported as -74.4%.
CC(C)C(=O)Nc1ncc(-c2cc(C(F)F)nn2-c2c(Cl)cccc2Cl)s1 [BMS-5] showed an AC50 cell viability (HCT116 [1]) of 18.6 µM and an efficacy (HCT116 [2]) of -80.8%.
CN1\N=C(N)/C2=C[N]([C@@H]3O[C@H](CO[P](O)(O)=O)[C@@H](O)[C@H]3O)C4=C2C1=NC=N4 [Triciribine phosphate] was tested, and the AC50 cell viability (HCT116 [1]) was 2.95 µM and the efficacy (HCT116 [2]) was -90.5%.
In the case of O=C1c2cccc(O)c2C(=O)c2c(O)cc(CO)cc21 [Aloe-emodin], the AC50 cell viability (HCT116 [1]) is reported as 11.8 µM and the efficacy (HCT116 [2]) is reported as -47.2%.
Work on c1ccc(CNc2nc(N3CCOc4ccccc43)nc3c2CCCC3)cc1 yielded an AC50 cell viability (HCT116 [1]) of 20.9 µM and an efficacy (HCT116 [2]) of -42.4%.
For CC(C)C(=O)OCC(=O)[C@@]12O[C@@H](O[C@@H]1C[C@H]3[C@@H]4CC\C5=C\C(=O)\C=C/[C@]5(C)[C@H]4[C@@H](O)C[C@]23C)C6CCCCC6 [Ciclesonide], the AC50 cell viability (HCT116 [1]) was 20.9 µM and the efficacy (HCT116 [2]) was -78.4%.
With CN(C)c1ccc(C(=O)NCCCCCCC(=O)NO)cc1 [M-344] the AC50 cell viability (HCT116 [1]) was 0.742 µM and the efficacy (HCT116 [2]) was -84.5%.
For COc1ccc([S+](=O)([O-])Nc2cccnc2Nc2ccc(O)cc2)cc1 [E-7010], the AC50 cell viability (HCT116 [1]) was 0.59 µM and the efficacy (HCT116 [2]) was -63.2%.
Compound CNC(=O)c1cc(Oc2ccc(NC(=O)Nc3ccc(Cl)c(C(F)(F)F)c3)cc2)ccn1 [Sorafenib] has an AC50 cell viability (HCT116 [1]) of 9.34 µM and an efficacy (HCT116 [2]) of -95%.
For O=C(CC12CC3CC(CC(C3)C1)C2)Nc1cccc2nc(NCCNCCO)ccc12, the AC50 cell viability (HCT116 [1]) was 26.3 µM and the efficacy (HCT116 [2]) was -101%.
In the case of CC1(C)OCCn2c1nc1c(N3CCOCC3)nc(-c3cnc(N)nc3)nc12 [GDC-0084], the AC50 cell viability (HCT116 [1]) is reported as 0.833 µM and the efficacy (HCT116 [2]) is reported as -58.4%.
Nc1ccccc1NC(=O)c1ccc(CNc2nccc(-c3cccnc3)n2)cc1 [Mocetinostat] was tested, and the AC50 cell viability (HCT116 [1]) was 0.934 µM and the efficacy (HCT116 [2]) was -73.2%.
Compound CNC(=O)c1cc(COc2nnc(Nc3ccc(Cl)cc3)c3ccoc23)ccn1 [Telatinib] has an AC50 cell viability (HCT116 [1]) of 20.9 µM and an efficacy (HCT116 [2]) of -70.3%.
CC(=O)c1ccc2c(c1)c1cc(C(C)=O)ccc1n2CCNC(C)C [CBL-0137] gave an AC50 cell viability (HCT116 [1]) of 0.417 µM and an efficacy (HCT116 [2]) of -69.6%.
Cn1cc(-c2ccc3ncc(Cc4ccc5ncccc5c4)n3n2)cn1 [NVP-BVU-972] showed an AC50 cell viability (HCT116 [1]) of 18.6 µM and an efficacy (HCT116 [2]) of -40.8%.
CCCC1(CCC)CCC2(CCN(CCCN(CC)CC)C2)CC1 [Atiprimod] showed an AC50 cell viability (HCT116 [1]) of 2.63 µM and an efficacy (HCT116 [2]) of -99.3%.
